Values joined by “and” are separate entries in the source; they are usually repeats but may differ in a detail not shown here. Equal entries are not always repeated.
Details: Crystal, Calculated from knudsen effusion weight loss

O=[N+]([O-])c1cc(Br)ccc1Br [1,4-dibromo-2-nitrobenzene]
Details	vapor or sublimation pressure
302.14 K	9.9e-05 kPa and 9.7e-05 kPa
304.16 K	0.000121 kPa and 0.000125 kPa and 0.000123 kPa
306.15 K	0.000167 kPa and 0.000166 kPa and 0.000163 kPa
308.15 K	0.000204 kPa and 0.000205 kPa and 0.000203 kPa
310.14 K	0.00026 kPa and 0.000264 kPa and 0.000261 kPa
312.14 K	0.000327 kPa and 0.000332 kPa and 0.000329 kPa
314.14 K	0.000418 kPa and 0.000419 kPa
316.14 K	0.000522 kPa and 0.000527 kPa and 0.000524 kPa
318.15 K	0.000666 kPa and 0.000675 kPa and 0.000673 kPa
320.15 K	0.000884 kPa and 0.000858 kPa and 0.000838 kPa
322.14 K	0.001072 kPa and 0.001068 kPa and 0.001063 kPa

Reference: the NIST ThermoML archive (doi:10.1016/j.jct.2009.05.010)
